Tests used:
Format in all cases: cell-based, human
ATR-H cells [1] = test: Free cellular H2S measurement by HPLC after MBB derivatization, ATR-H cells
Description: (§1) Cells: The human colon cancer cell line DLD1 cell line containing wild-type ATR (ATR cells) or the ATR-Seckel knock-in hypomorphic mutation (ATR-H cells) were a kind gift from Dr. Fred Bunz of the Department of Radiation Oncology and Molecular Radiation Sciences, The Johns Hopkins University School of Medicine. The cells were cultured in DMEM with 5% FBS, 1% penicillin/streptomycin.
(§2) H2S measurements: Bioavailable sulfide levels were measured as previously reported. Levels of free sulfide (H2S) in ATR and ATR-H cells were measured by high performance liquid chromatography (HPLC) after derivatization with excess MBB as stable products sulfide-dibimane (SDB). Briefly, ATR and ATR-H cells were homogenized in Tris.HCl buffer [100 mM Tris.HCl (pH 9.5) and 0.1 mM diethylenetriaminepentaacetic acid (DTPA)]. Cell lysates were derivatized with MBB and then measured by Shimadzu Prominence 20 A equipment with RF-10AXL (excitation wavelength: […] and emission wavelength: […]) and an Eclipse XDB-C18 column (4.6×50 mm, 5 μm). Typical retention times of SDB were 16.5 min. H2S levels were calculated according to the standard SDB.

ATR cells [2] = test: Free cellular H2S measurement by HPLC after MBB derivatization, ATR cells
Description: as §1, §2

[3] = test system: DLD1 cell line containing the ATR-Seckel knock-in hypomorphic mutation (ATR-H cells); test: Colony forming-efficiency assay, ATR-H cells
Description: as §1
(§3) Colony forming-efficiency assay: Colony forming-efficiency (CEFA) experiments were performed. In brief, exponentially growing cells were plated for 12 h at 2000 cells/100 mm tissue culture dish in 10 ml appropriate media. The cells were pretreated for 2 h with either an H2S inhibitor (β-cyano-1-alanine, 1 mM) or donor (diallyl trisulfide, 20 uM), washed 3× with 1× phospate buffered saline, the media replaced, and the cells were immediately treated with for 15 min with 50, 100, and 200 μM t-butyl hydroperoxide (t-BOOH). Following treatment, the cells were washed 3× with phosphate-buffered saline, the media replaced and the cells cultured for 11 days. The resulting colonies were fixed and stained by water: methanol addition (1:1) containing crystal violet (1 g/l). “Colonies” consisted of cell clusters containing greater than 50 cells when counted by dissecting microscopy.

ATR-pS435 in ATR-H cells = test: Western blot of ATR serine 435 phosphorylation, ATR-H cells
Description: as §1
(§4) Western blotting: To prepare whole cell lysates from ATR and ATR-H cells, the cells were grown in 6-well plates, the medium was removed, and 300 μl of SDS sample buffer (62.5 mM Tris-HCl (pH 6.8), 2% w/v SDS, 10% glycerol, 50 mM dithiothreitol, 0.1% w/v bromphenol blue) was added to each well. Following lysis in SDS sample buffer, lysates were harvested with cell scrapers and collected in Eppendorf tubes. The lysates were boiled, centrifuged, and frozen at −20° C. until gel electrophoresis was performed. The protein concentrations were measured by Bio-rad DC protein assay. Twenty […] of total protein supernatant extract was mixed with 2×SDS loading buffer according to protein concentration. Lysates separated by SDS-PAGE were transferred to polyvinylidene difluoride membranes, and membranes were blocked in 5% nonfat dry milk before the addition of primary antibodies. Densitometry was performed with ImageJ software version 1.45 s. All western blots were performed at least in triplicate.

[4] = test system: CHK1 serine-345 phosphorylation in ATR cells; test: Western blot of CHK1 serine 345 phosphorylation, ATR cells
Description: as §1, §4

[5] = test system: DLD1 cell line containing wild-type ATR (ATR cells); test: Colony forming-efficiency assay, ATR wild-type cells; details: 11 days; for sensitivity of colony formation to t-BOOH after H2S inhibitor pretreatment: 2 h 1 mM β-cyano-l-alanine, then 15 min 50, 100 or 200 μM t-BOOH
Description: as §1, §3

ATR-pS435 in ATR cells = test: Western blot of ATR serine 435 phosphorylation, ATR cells
Description: as §1, §4

ATR-H cells [6] = test: dsDNA breaks in metaphase chromosomal preparations, ATR-H cells
Description: as §1
(§5) Chromosomal preparation and analysis: One 100-mm tissue culture plate/treatment of logarithmically growing ATR and ATR-H cells at 50% confluence were treated with or without, 1 mM H2S inhibitor β-cyano-l-alanine for two hours, followed by a 15-minute treatment with 10 μM t-BOOH. Following this treatment, the cells were washed 3× with phosphate-buffered saline, the media replaced, and the cells cultured for 1 h. Colcemid (100 ng/ml) was then added for 4 h and the cells harvested by washing 2× in 1×PBS, followed by trypsinization and transference to a 15 ml tube. Two-ml of DMEM with 5% FBS was added/tube and the cells were pelleted 5 min at 500×g. The cells were re-suspended in 5 ml […] and incubated 15 min at 37° C. About 200 μl of fresh methanol: glacial acetic acid at 3:1 (Carnoy's fixative) was added, the cells gently vortexed, and pelleted for 5 min at 500×g. The supernatant was removed and 5 ml of Carnoy's fixative added with gentle vortexing. The cells were pelleted for 5 min at 500×g, the supernatant removed, and 5 ml of Carnoy's fixative was added with gentle vortexing. Chromosomal preparations were made by pelleting the preparations for 5 min at 500×g, removing the supernatant, dropping on slides, drying for 30 min at 90° C., Giemsa staining, washing, and cover-slipping. Each data point represents 5000 individual chromosomal observations preformed under oil immersion microscopy done in triplicate.

[7] = test system: CHK1 serine-345 phosphorylation in ATR-H cells; test: Western blot of CHK1 serine 345 phosphorylation, ATR-H cells; details: 2 h 1 mM β-cyano-l-alanine with or without 15 min 10 μM t-BOOH
Description: as §1, §4

ATR cells [8] = test: dsDNA breaks in metaphase chromosomal preparations, ATR cells; details: 2 h 1 mM β-cyano-l-alanine followed by 10 μM t-BOOH
Description: as §1
as §5, with “The cells were pelleted for 5 min at 500×g, the supernatant removed, and 5 ml of Carnoy's fixative was added with gentle vortexing. Chromosomal preparations were made by pelleting the preparations for 5 min at 500×g, removing the supernatant, dropping on slides, drying for 30 min at 90° C., Giemsa staining, washing, and cover-slipping. Each data point represents 5000 individual chromosomal observations preformed under oil immersion microscopy done in triplicate.” left out

[9] = ATR wild-type cells, 2 h 1 mM β-cyano-l-alanine

With `Nc1nc(N)c(N=O)c(OCC2CCCCC2)n1` [NU6027] the “cellular free H2S concentration” value (ATR-H cells [1]; 2 h 12 μM NU6027) was “but not the ATR-H cells” and the “cellular free H2S concentration” value (ATR cells [2]; 2 h 12 μM NU6027) was “significantly decreased”.
For `C=CCSSSCC=C` [diallyl trisulfide], the “colony formation, H2S donor pretreatment” value ([3]; 2 h 20 μM diallyl trisulfide, 11 days) was “significantly decreased”, the ATR-pS435 level (ATR-pS435 in ATR-H cells; 2 h 20 μM diallyl trisulfide) was “not affected by any treatment” and the “CHK1 serine-345 phosphorylation after t-BOOH, H2S donor pretreatment” value ([4]; ATR wild-type cells, H2S donor pretreatment, then t-BOOH) was “did not significantly alter”. The “colony formation, H2S donor pretreatment” value ([5]; 2 h 20 μM diallyl trisulfide) was “significantly decreased”, the “cellular free H2S concentration” value (ATR cells [2]; 2 h 20 μM diallyl trisulfide) was “suppressed” and the ATR-pS435 level (ATR-pS435 in ATR cells; ATR wild-type cells, 2 h 20 μM diallyl trisulfide) was “inhibited this phosphorylation”.
In the case of `CC(C)(C)OO` [t-BOOH, t-butyl hydroperoxide], the “colony formation suppression by t-BOOH” value ([3]; 15 min 50, 100 or 200 μM t-BOOH, 11 days) is reported as “colony formation suppression was t-BOOH dose-dependent”, the ATR-pS435 level (ATR-pS435 in ATR-H cells; 100 μM t-BOOH 15 min, then 45 min in media) is reported as “not increased” and the “colony formation suppression by t-BOOH” value ([5]; 15 min 50, 100 or 200 μM t-BOOH) is reported as “colony formation suppression was t-BOOH dose-dependent”. For the same molecule, the “induction of ATR-pS435 levels” value (ATR-pS435 in ATR cells; ATR wild type cells, 100 μM t-BOOH 15 min, then 45 min in media) was about 50% and the dsDNA break formation (ATR-H cells [6]; 15 min 10 μM t-BOOH alone) was “significantly increased dsDNA break formation”.
`N#CC[C@H](N)C(=O)O` [β-cyano-l-alanine] was tested, and the “colony formation, H2S inhibitor pretreatment with 200 μM t-BOOH versus 200 μM t-BOOH alone” value ([3]; 200 μM t-BOOH) was “not significantly different”, the “colony formation, H2S inhibitor by itself” value ([3]; 2 h 1 mM β-cyano-l-alanine, no t-BOOH, 11 days) was “suppressed ATR-H cell colony formation” and the “sensitivity of colony formation to t-BOOH after H2S inhibitor pretreatment” value (“sensitivity … after H2S inhibitor pretreatment” for short) ([3]; 2 h 1 mM β-cyano-l-alanine, then 15 min 50, 100 or 200 μM t-BOOH, 11 days, compared to ATR wild-type cells) was “significantly more sensitive to the same t-BOOH exposures”. For the same molecule, the “CHK1 serine-345 phosphorylation level changes” value [7] was “failed to show significant CHK1 serine-345 phosphorylation level changes”, the ATR-pS435 level (ATR-pS435 in ATR-H cells; 2 h 1 mM β-cyano-l-alanine) was “not affected by any treatment” and the “CHK1 serine-345 phosphorylation after t-BOOH, with versus without H2S inhibitor pretreatment” value ([4]; ATR cells, 2 h 1 mM β-cyano-l-alanine, then 15 min 10 μM t-BOOH, harvest at 45 min) was “significantly increased”. For the same molecule, the “sensitivity … after H2S inhibitor pretreatment” value [5] was “slightly increased the sensitivity of the ATR cells”, the “sensitivity … after H2S inhibitor pretreatment” value ([5]; listed as H2S inhibitor) was “only significantly potentiated t-BOOH toxicity at the two higher doses” and the “cellular free H2S concentration” value (ATR-H cells [1]; 2 h 1 mM β-cyano-l-alanine) was “significantly lowered”. The “cellular free H2S concentration” value (ATR cells [2]; 2 h 1 mM β-cyano-l-alanine) was “significantly lowered”, the ATR-pS435 level (ATR-pS435 in ATR cells; [9]) was “increased ATR-pS435” and the “increase of ATR-pS435 compared to untreated cell phosphorylation levels” value (ATR-pS435 in ATR cells; [9]) was about 50%. For the same molecule, the dsDNA breaks (ATR-H cells [6]; 1 mM β-cyano-l-alanine alone) was “significantly increased dsDNA breaks”, the dsDNA breaks (ATR-H cells [6]; 2 h 1 mM β-cyano-l-alanine followed by 10 μM t-BOOH) was “significantly increased dsDNA breaks” and the dsDNA breaks (ATR cells [8]) was “significantly increased dsDNA breaks”.

Reference: patent US11510925B2, “Methods and therapeutics to regulate hydrogen sulfide bioavailability” (Board of Supervisors of Louisiana State University and …, priority 2018, dated 2022)
